According to patent US12213483B1, “Herbicidal compositions comprising trifludimoxazin” (BASF SE, priority 2024, dated 2025):
Values joined by “and” are separate entries in the source; they are usually repeats but may differ in a detail not shown here. Identical values can stand only once.

Legend:
Format in all cases: in vivo
Setaria viridis (SETVI) = experiment: Post-emergence application in greenhouse trials, SETVI
Procedure: (§1) In the examples below, using the method of S. R. Colby (1967) “Calculating synergistic and antagonistic responses of herbicide combinations”, Weeds 15, p. 22ff., the value E, which is expected if the activity of the individual active compounds is only additive, was calculated: E=X+Y−(X·Y/100) • where • X=percent activity using active herbicide A at an application rate a; • Y=percent activity using active trifludimoxazin at an application rate b; • E=expected activity (in %) by A+B at application rates a+b.
(§2) If the value found experimentally is higher than the value E calculated according to Colby, a synergistic effect is present.
(§3) The culture containers used were plastic pots containing loamy sand with approximately 3.0% of humus as substrate. The seeds of the test plants were sown separately for each species.
(§4) For the post-emergence treatment, the test plants were grown to a plant height of from 3 to 15 cm, depending on the plant habit, and only then treated with the active compounds which had been suspended or emulsified in water. To this end, the test plants were either sown directly, and grown in the same containers, or they were first grown separately as seedlings and transplanted into the test containers a few days prior to treatment.
(§5) Depending on the species, the plants were kept at 10-25° C. and 20-35° C., respectively.
(§6) The test period extended over 2 to 4 weeks. During this time, the plants were tended and their response to the individual treatments was evaluated.
(§7) Evaluation was carried out using a scale from 0 to 100. 100 means no emergence of the plants, or complete destruction of at least the above-ground parts, and 0 means no damage or normal course of growth. A good herbicidal activity is given at values of at least 70, and very good herbicidal activity is given at values of at least 85.
(§8) In the greenhouse trials, unless indicated otherwise, herbicide A, trifludimoxazin and saflufenacil were formulated (50 g/I) and applied with addition of 1% MSO (methylated seed oil) as adjuvant. The solvent used was water (200 I/ha).

[1] = test system: Echinocloa crus-galli (ECHCG); experiment: Post-emergence application in greenhouse trials, ECHCG; conditions: GS 13
Procedure: as §1, §2, §3, §4, §5, §6, §7, §8

[2] = test system: Digitaria sanguinales (DIGSA); experiment: Post-emergence application in greenhouse trials, DIGSA
Procedure: as §1, §2, §3, §4, §5, §6, §7, §8

[3] = test system: Brachiaria decumbens (BRADC); experiment: Post-emergence application in field trials, BRADC; conditions: 3 DAT, water volume 200 l/ha, growth stage 21-31, height 3-20 cm
Procedure: as §1, §2
(§9) On field test sites, natural weed infestation or seeded weeds were treated post-emergence of the weeds.
(§10) In the field trials, the weedy plants were treated as indicated below.
(§11) Herbicide A-1 (342 g/I), trifludimoxazin (500 g/I) and saflufenacil (342 g/I) were, together with addition of 1% MSO (methylated seed oil) as adjuvant (unless indicated otherwise), formulated in water as distribution medium as indicated and sprayed with commercial flat fan nozzles.
(§12) In the following experiments, the herbicidal activity for the individual herbicidal compositions (solo and mixture applications) was assessed at the indicated days after treatment (DAT). […]

[4] = test system: Senna obtusifolia (CASOB); experiment: Post-emergence application in field trials, CASOB; conditions: 43 DAT, water volume 200 l/ha, growth stage 12-35, height 5-20 cm
Procedure: as §1, §2, §9, §10, §11
(§13) In the following experiments, the herbicidal activity for the individual herbicidal compositions (solo and mixture applications) was assessed at the indicated days after treatment (DAT). The assessments for the damage on undesired weeds caused by the composition was carried out using a scale from 0 to 100%, compared to the untreated control plants. Here, 0 means no damage and 100 means complete destruction of the plants.
(§14) Herbicide A-1 (100 g/l) and trifludimoxazin (500 g/l) were, together with addition of 1% MSO (methylated seed oil) as adjuvant (unless indicated otherwise), formulated in water as distribution medium as indicated and sprayed with commercial flat fan nozzles.

Avena fatua (AVEFA) [5] = experiment: Post-emergence application in field trials, AVEFA; conditions: 29 DAT; water volume 100 l/ha; pre plant burndown; growth stage 14-23; height 24-40 cm; 18 g ai/ha
Procedure: as §1, §2, §9, §10, §11, §13, §14

Setaria italica (SETIT) = experiment: Post-emergence application in field trials, SETIT; conditions: 22 DAT, water volume 200 l/ha, growth stage 21-31
Procedure: as §1, §2, §9, §10, §11, §12

Hordeum vulgare (HORVS) = experiment: Post-emergence application in field trials, HORVS; conditions: water volume 100 l/ha, pre plant burndown, 18 g ai/ha
Procedure: as §1, §2, §9, §10, §11, §13, §14

[6] = test system: Lolium multiflorum (LOLMU); experiment: Post-emergence application in greenhouse trials, LOLMU; conditions: 20 DAT
Procedure: as §1, §2, §3, §4, §5, §6, §7, §8

[7] = test system: Spermacoce latifolia (BOIFL); experiment: Post-emergence application in field trials, BOIFL; conditions: 8 DAT, water volume 200 l/ha, growth stage 12-16, height 3-10 cm
Procedure: as §1, §2, §9, §10, §11, §13, §14

[8] = test system: Commelina benghalensis (COMBE); experiment: Post-emergence application in greenhouse trials, COMBE
Procedure: as §1, §2, §3, §4, §5, §6, §7, §8

[9] = test system: Erigeron canadensis (ERICA); experiment: Post-emergence application in greenhouse trials, ERICA; conditions: 20 DAT, GS 19
Procedure: as §1, §2, §3
as §4, with “treatment. […]” for “treatment.”
The test period extended over 2 to 4 weeks. During this time, the plants were tended and their response to the individual treatments was evaluated. […]

Setaria faberi (SETFA) = experiment: Post-emergence application in greenhouse trials, SETFA; conditions: GS 13
Procedure: as §1, §2, §3, §4, §5, §6, §7, §8

Avena fatua (AVEFA) [10] = experiment: Post-emergence application in greenhouse trials, AVEFA
Procedure: as §1, §2, §3, §4, §5, §6, §7, §8

[11] = test system: Euphorbia heterophylla (EPHHL); experiment: Post-emergence application in field trials, EPHHL; conditions: 43 DAT, water volume 200 l/ha, growth stage 16-18, height 10-15 cm
Procedure: as §1, §2, §9, §10, §11, §12

[12] = 20 DAT, growth stage 14, 0.3 g ai/ha
[13] = 28 DAT, growth stage 21-24, height 15-37 cm
[14] = 29 DAT, growth stage 15-24, height 25-45 cm
[15] = 20 DAT, growth stage 21, 0.3 g ai/ha

Structure (SMILES): CCOC(=O)COc1ccccc1Oc1nc(-n2c(=O)cc(C(F)(F)F)n(C)c2=O)c(F)cc1Cl [A-1, ethyl 2-[2-[[3-chloro-5-fluoro-6-[3-methyl-2,6-dioxo-4-(trifluoromethyl)pyrimidin-1-yl]-2-pyridyl]oxy]phenoxy]acetate]
- % Herbicidal activity (Setaria viridis (SETVI); 7 DAT, GS 14, A-1 0.2 g ai/ha): 30%
- % Herbicidal activity (Setaria viridis (SETVI); 7 DAT, GS 14, A-1 0.3 g ai/ha): 30%
- % Herbicidal activity (Setaria viridis (SETVI); 7 DAT, GS 14, A-1 0.4 g ai/ha): 40%
- % Herbicidal activity (Setaria viridis (SETVI); 20 DAT, GS 14, A-1 0.3 g ai/ha): 15%
- % Herbicidal activity (Setaria viridis (SETVI); [12]): 15%
- % Herbicidal activity ([1]; 7 DAT, A-1 0.4 g ai/ha): 40%
- % Herbicidal activity ([1]; 20 DAT, A-1 0.2 g ai/ha): 0%
- % Herbicidal activity ([2]; 7 DAT, GS 12, A-1 0.3 g ai/ha): 45%
- % Herbicidal activity ([2]; 7 DAT, GS 12, A-1 0.4 g ai/ha): 50%
- % Herbicidal activity ([2]; 7 DAT, GS 12, A-1 0.8 g ai/ha): 65%
- % Herbicidal activity ([2]; 7 DAT, GS 12, A-1 0.9 g ai/ha): 90%
- % Herbicidal activity ([2]; 19 DAT, B-1 formulated as 500 g/l, GS 13, A-1 1 g ai/ha): 95%
- % Herbicidal activity ([3]; 20 g ai/ha): 77%
- % Herbicidal activity ([4]; 20 g ai/ha): 58%
- % Herbicidal activity ([4]; 30 g ai/ha): 73%
- % Herbicidal activity (Avena fatua (AVEFA) [5]): 80%
- % Herbicidal activity (Setaria italica (SETIT); 30 g ai/ha): 88%
- % Herbicidal activity (Hordeum vulgare (HORVS); [13]): 89%
- % Herbicidal activity (Hordeum vulgare (HORVS); [14]): 73%
- % Herbicidal activity ([6]; GS 13, A-1 0.3 g ai/ha): 10%
- % Herbicidal activity ([6]; growth stage 13, 0.3 g ai/ha): 10%
- % Herbicidal activity ([7]; 20 g ai/ha): 75%
- % Herbicidal activity ([7]; 30 g ai/ha): 82%
- % Herbicidal activity ([8]; 6 DAT, GS 21, A-1 0.3 g ai/ha): 65%
- % Herbicidal activity ([8]; 20 DAT, GS 21, A-1 0.3 g ai/ha): 45%
- % Herbicidal activity [8, 15]: 45%
- % Herbicidal activity ([9]; A-1 0.2 g ai/ha): 10%
- % Herbicidal activity (Setaria faberi (SETFA); 7 DAT, A-1 0.3 g ai/ha): 55%
- % Herbicidal activity (Setaria faberi (SETFA); 7 DAT, A-1 0.5 g ai/ha): 80%
- % Herbicidal activity (Setaria faberi (SETFA); 20 DAT, A-1 0.3 g ai/ha): 80%
- % Herbicidal activity (Avena fatua (AVEFA) [10]; 7 DAT, GS 13, A-1 1 g ai/ha): 65%
- % Herbicidal activity (Avena fatua (AVEFA) [10]; 20 DAT, B-1 formulated as 500 g/l, GS 12, A-1 2 g ai/ha): 98%
- % Herbicidal activity (Avena fatua (AVEFA) [10]; 20 DAT, GS 13, A-1 0.3 g ai/ha): 15%
- % Herbicidal activity (Avena fatua (AVEFA) [10]; 20 DAT, growth stage 13, 0.3 g ai/ha): 15%
- % Herbicidal activity ([11]; 20 g ai/ha): 73%

Structure (SMILES): C#CCN1C(=O)C(F)(F)Oc2cc(F)c(-n3c(=O)n(C)c(=S)n(C)c3=O)cc21 [B-1, trifludimoxazin]
- % Herbicidal activity (Setaria viridis (SETVI); 7 DAT, GS 14, B-1 0.3 g ai/ha): 35%
- % Herbicidal activity (Setaria viridis (SETVI); 7 DAT, GS 14, B-1 0.8 g ai/ha): 45%
- % Herbicidal activity (Setaria viridis (SETVI); 7 DAT, GS 14, B-1 0.9 g ai/ha): 55%
- % Herbicidal activity (Setaria viridis (SETVI); 7 DAT, GS 14, B-1 1 g ai/ha): 60%
- % Herbicidal activity (Setaria viridis (SETVI); 20 DAT, GS 14, B-1 0.3 g ai/ha): 10%
- % Herbicidal activity (Setaria viridis (SETVI); 20 DAT, GS 14, B-1 0.9 g ai/ha): 70%
- % Herbicidal activity (Setaria viridis (SETVI); [12]): 10%
- % Herbicidal activity ([1]; 7 DAT, B-1 0.8 g ai/ha): 40%
- % Herbicidal activity ([1]; 20 DAT, B-1 1.1 g ai/ha): 60%
- % Herbicidal activity ([2]; 7 DAT, GS 12, B-1 0.3 g ai/ha): 15% and 10%
- % Herbicidal activity ([2]; 7 DAT, GS 12, B-1 0.4 g ai/ha): 15%
- % Herbicidal activity ([2]; 7 DAT, GS 12, B-1 0.8 g ai/ha): 45%
- % Herbicidal activity ([2]; 19 DAT, B-1 formulated as 500 g/l, GS 13, B-1 2 g ai/ha): 40%
- % Herbicidal activity ([3]; 12.5 g ai/ha): 43%
- % Herbicidal activity ([4]; 12.5 g ai/ha): 48%
- % Herbicidal activity (Avena fatua (AVEFA) [5]): 0%
- % Herbicidal activity (Setaria italica (SETIT); 12.5 g ai/ha): 27%
- % Herbicidal activity (Hordeum vulgare (HORVS); [13]): 0%
- % Herbicidal activity (Hordeum vulgare (HORVS); [14]): 0%
- % Herbicidal activity ([6]; growth stage 13, 0.9 g ai/ha): 15%
- % Herbicidal activity ([7]; 12.5 g ai/ha): 68%
- % Herbicidal activity ([8]; 6 DAT, GS 21, B-1 0.3 g ai/ha): 45%
- % Herbicidal activity ([8]; 20 DAT, GS 21, B-1 0.3 g ai/ha): 0%
- % Herbicidal activity ([8]; 20 DAT, GS 21, B-1 0.9 g ai/ha): 15%
- % Herbicidal activity [8, 15]: 0%
- % Herbicidal activity ([9]; B-1 1.1 g ai/ha): 40%
- % Herbicidal activity (Setaria faberi (SETFA); 7 DAT, B-1 0.9 g ai/ha): 45%
- % Herbicidal activity (Setaria faberi (SETFA); 20 DAT, B-1 0.3 g ai/ha): 15%
- % Herbicidal activity (Setaria faberi (SETFA); 20 DAT, B-1 0.9 g ai/ha): 70%
- % Herbicidal activity (Avena fatua (AVEFA) [10]; 7 DAT, GS 13, B-1 0.2 g ai/ha): 20%
- % Herbicidal activity (Avena fatua (AVEFA) [10]; 20 DAT, B-1 formulated as 500 g/l, GS 12, B-1 1 g ai/ha): 15%
- % Herbicidal activity (Avena fatua (AVEFA) [10]; 20 DAT, growth stage 13, 0.9 g ai/ha): 20%
- % Herbicidal activity ([11]; 12.5 g ai/ha): 60%
